Source: US20070043115A1, “Use of choline to prevent thrombosis associated with total parenteral nutrition” (priority 2005, published 2007)
Read-outs that look alike come from different tables or passages of the source.

Assays:
[1] = tested on: plasma levels of homocysteine
Experimental: Two female normal volunteers were infused with C-13-labeled choline and plasma levels of homocysteine were determined before and after infusion.

[2] = Experimental: Prior to use, the appropriate amount of choline solution is transferred from the sterile vial and is added to the nutrient solution which typically is contained in a TPN bag.

C-13-labeled choline
Plasma concentration of homocysteine after infusion ([1]; first normal volunteer, 6.62 umol/L before infusion): 5.14 µmol/L | Plasma concentration of homocysteine after infusion ([1]; second normal volunteer, 7.47 umol/L before infusion): 6.64 µmol/L

C[N+](C)(C)CCO.[Cl-] [Choline chloride, choline chloride]
effects on the TPN solution turbidity, pH, or amino acid concentrations ([2]; choline chloride added to TPN nutrient solutions): no adverse affects | stable in various TPN nutrient solutions ([2]; various TPN nutrient solutions): at least 30 days
